Measured values reported in US6071884A, “Pharmaceutical compositions and therapeutic methods” (Kirin Beer Kabushiki Kaisha, priority 1992, dated 2000).

How the values were obtained:
[1] = Life-span-increasing effect on irradiation of a lethal dose of radiation; type: in vivo, mouse (BDF1); conditions: 10 mice/group, 9 Gy X-ray, 0.1 mg/kg i.v. days 0, 4, 8
Procedure: Pharmacological Test 4: Life-Span-Increasing Effect on Irradiation of a Lethal Dose of Radiation
An experiment was carried out by using 6 week old female BDF1 mice purchased from Japan SLC Co., Ltd., with 10 mice made one group.
The entire bodies of the entire body of the mice were irradiated with 9 Gy of X-rays by using a Hitachi X-ray irradiator (MBR-1520R), and the day on which the X-ray was irradiated was referred to as "day 0".

[2] = tested on: blood platelets; experiment: Blood-platelet-increasing effect upon normal mouse; type: in vivo, mouse (BDF1); conditions: normal mice; 6 days after 0.1 mg/kg i.v.; mean ± SD; vehicle per series 58.2, 63.0, 71.1
Procedure: Pharmacological Test 6: Blood-Platelet-Increasing Effect upon Mouse
An experiment was carried out by using 6 week old female BDF1 mice purchased from Japan SLC Co., Ltd., with 5 mice made one group.
Each sample was administered to the caudal vein of the mice at a dose of 0.1 mg/kg. After 6 days, blood was collected from the fundus vein of the mice, and the number of blood platelets was measured by a sequential multi-channel hemocytometer E-2500/cs (Toa Iyo Denshi Kabushiki Kaisha). The number of blood platelets of the vehicle-administered group, and that of the sample-administered group are shown in Table 6.

[3] = tested on: blood platelets; experiment: Thrombocytopenia-inhibiting effect in X-ray-irradiated mice; type: in vivo, mouse (BDF1); conditions: 10 days after 5 Gy X-ray; 0.1 mg/kg i.v. within 2 h; mean ± SD; vehicle per series 10.3, 6.8, 6.7; non-treatment 68.2, 96.9, 73.0
Procedure: Pharmacological Test 5: Thromboclytopenia-Inhibiting Effect
The thrombocytopenia-inhibiting effect of each sample upon an X-ray-irradiated mouser which is one of models with a decreased number of blood platelets was examined.
An experiment was carried out by using 6 week old female BDF1 mice purchased from Japan SLC Co., Ltd., with 6 mice made one group.
5 Gy of X ray was irradiated to the entire body of the mice by a Hitachi X-ray irradiator CMBR-1520R). Within 2 hours after the irradiation, each sample was administered to the caudal vein of the mice at an amount of 0.1 mg/kg.
After 10 days, blood was collected from the fundus vein of the mice, and the number of blood platelets was measured by a sequential multi-channel hemocytometer E-2500/cs (Toa Iyo Denshi Kabushiki Kaisha). The number of blood platelets of the non-treated group, that of the medium-administered group, and that of the sample-administered group are shown in Table 5.

[4] = tested on: marrow cells (mononuclear cell fraction); experiment: Proliferation-stimulating effect on marrow cell of mouse (3H-TdR uptake); type: cell-based, mouse (BALB/c); conditions: percentage of control, 72 h; for activity at 1 µg/mL: 10^0 μg/ml; for activity at 0.1 µg/mL: 10^-1 μg/ml; for activity at 0.01 µg/mL: 10^-2 μg/ml; for activity at 0.001 µg/mL: 10^-3 μg/ml
Procedure: Pharmacological Test 1: Proliferation-Stimulating Effect on Marrow Cell of Mouse
Marrow cells were prepared from the thigh bone of a 7 week old female BALB/c mouse purchased from Japan SLC Co., Ltd., and a mononuclear cell fraction (MNF) obtained by fractionation using a lympholyte-M (Cedar Lane, Ontario, Canada) was used in the following experiment.
The concentration of the MNF was adjusted to 1.5×10^6 cells/ml by using 10% FCS RPMI 1640 (Nissui Pharmaceutical Co., Ltd., Tokyo, Japan) as a culture medium. 10 μl/well of a sample with a predetermined concentration and 100 μl/well of the above-prepared MNF were placed on a round-bottomed 96 well plate, and incubated under the conditions of 37° C. and 5% CO2 for 72 hours. Thereafter, 0.5 μCi/well of ^3 H-thymidine (^3 H-TDR) was added. After 8 hour incubation, the cells were harvested, and the amount of the 3H-TdR taken in the nuclei was measured by a liquid scintillation counter.

[5] = day 10, controls per series 10, 10, 10, 10, 10, 8
[6] = day 15, controls per series 8, 9, 5, 5, 7, 1
[7] = day 20, controls per series 4, 5, 1, 2, 3, 0
[8] = day 25, controls per series 3, 3, 0, 0, 2, 0
[9] = day 30, controls per series 1, 1, 0, 0, 0, 0

| SMILES | Number of Surviving Mice [1, 5] | Number of Surviving Mice [1, 6] | Number of Surviving Mice [1, 7] | Number of Surviving Mice [1, 8] | Number of Surviving Mice [1, 9] | Number of Surviving Mice ([1]; day 35, all controls 0) | Number of Surviving Mice ([1]; day 40, all controls 0) | Number of Blood Platelets [2] | Number of Blood Platelets [3] | activity at 1 µg/mL [4] | activity at 0.1 µg/mL [4] | activity at 0.01 µg/mL [4] | activity at 0.001 µg/mL [4] |
| --- | --- | --- | --- | --- | --- | --- | --- | --- | --- | --- | --- | --- | --- |
| CCCCCCCCCCCCCCCCCCCCCC[C@H](O)C(=O)N[C@@H](CO[C@H]1O[C@H](CO)[C@H](O)[C@H](O)[C@H]1O)[C@H](O)[C@H](O)CCCCCCCCCCCC(C)C [Compound 30, (2S,3S,4R)-1-(α-D-galactopyranosyloxy)-2-[(S)-2-hydroxytetracosanoylamino]-16-methyl-3,4-heptadecanediol] | 10 mice | 10 mice | 10 mice | 10 mice | 10 mice | 10 mice | 10 mice | 106.2 ± 9.0 × 10^4 /μl | 22.5 ± 3.5 × 10^4 /μl | 712% | 293% | 105% | 92% |
| CCCCCCCCCCCCCCC[C@@H](O)[C@H](CO[C@H]1O[C@H](CO)[C@H](O)[C@H](O)[C@H]1O)NC(=O)CCCCCCC [Compound 7, (2S,3R)-1-(α-D-galactopyranosyloxy)-2-octanoylamino-3-octadecanol] | 10 mice | 8 mice | 6 mice | 5 mice | 5 mice | 5 mice | 5 mice | 76.0 ± 5.1 × 10^4 /μl | 12.3 ± 4.0 × 10^4 /μl | 972% | 631% | 351% | 313% |
| CCCCCCCCCCCCC/C=C/[C@@H](O)[C@H](CO[C@H]1O[C@H](CO)[C@H](O)[C@H](O)[C@H]1O)NC(=O)CCCCCCCCCCCCCCCCC [Compound 15, (2S,3R,4E)-1-(α-D-galactopyranosyloxy)-2-octadecanoylamino-4-octadecen-3-ol] | 10 mice | 9 mice | 6 mice | 6 mice | 6 mice | 6 mice | 6 mice | 84.7 ± 6.0 × 10^4 /μl | 17.8 ± 2.4 × 10^4 /μl | 979% | 292% | 101% | 69% |
| CCCCCCCCCCCCCCCCCCCCCCCC(=O)N[C@@H](CO[C@H]1O[C@H](CO)[C@H](O)[C@H](O)[C@H]1O)[C@H](O)[C@H](O)CCCCCCCCCCCC(C)C [Compound 31, (2S,3S,4R)-1-(α-D-galactopyranosyloxy)-16-methyl-2-tetracosanoylamino-3,4-heptadecanediol] | 10 mice | 10 mice | 9 mice | 9 mice | 9 mice | 9 mice | 9 mice | 108.0 ± 7.0 × 10^4 /μl | 27.7 ± 5.4 × 10^4 /μl | 624% | 326% | 104% | 101% |
| CCCCCCCCCCCCCCC[C@@H](O)[C@H](CO[C@H]1O[C@H](CO)[C@H](O)[C@H](O)[C@H]1O)NC(=O)CCCCCCCCC [Compound 6, (2S,3R)-2-decanoylamino-1-(α-D-galactopyranosyloxy)-3-octadecanol] | 9 mice | 6 mice | 2 mice | 2 mice | 2 mice | 2 mice | 2 mice | 93.0 ± 12.1 × 10^4 /μl | 15.4 ± 3.2 × 10^4 /μl |  | 391% | 196% | 71% |
| CCCCCCCCCCCCCCCCCCCCCCCC[C@@H](O)C(=O)N[C@@H](CO[C@H]1O[C@H](CO)[C@H](O)[C@H](O)[C@H]1O)[C@H](O)[C@H](O)CCCCCCCCCCCCCCC [Compound 26, (2S,3S,4R)-1-(α-D-galactopyranosyloxy)-2-[(R)-2-hydroxyhexacosanoylamino]-3,4-nonadecanediol] | 10 mice | 9 mice | 9 mice | 8 mice | 8 mice | 8 mice | 8 mice | 113.7 ± 7.1 × 10^4 /μl | 19.8 ± 4.3 × 10^4 /μl |  | 271% | 183% | 156% |
| CCCCCCCCCCCCCCCCCCCCCC(=O)N[C@@H](CO[C@H]1O[C@H](CO)[C@H](O)[C@H](O)[C@H]1O)[C@H](O)CCCCCCCCCCCCCCC [Compound 2, (2S,3R)-2-docosanoylamino-1-(α-D-galactopyranosyloxy)-3-octadecanol] | 10 mice | 10 mice | 9 mice | 9 mice | 9 mice | 9 mice | 8 mice | 96.3 ± 7.3 × 10^4 /μl | 21.5 ± 5.4 × 10^4 /μl | 915% | 295% | 92% | 123% |
